# Laboratory results from patent US20240197812A1, “Methods of Treating Cardiac Injury” (Proletariat Therapeutics, Inc., priority 2022, published 2024).
# Test system: critically ill patients with vasodilatory shock
# Test: Prospective observational study: safety (thromboembolic events, serum troponin elevation)
# Format: in vivo
# Settings: for Elevated serum troponin - %: troponin I level ≥20 ng/L
# Experimental: A prospective observational study was conducted to evaluate the efficacy, safety feasibility of using angiotensin II as a primary vasopressor for treatment of critically ill patients with vasodilatory shock.
# Study Population: A total of 40 patients receiving angiotensin II were matched to 80 control patients who received conventional vasopressors (norepinephrine, vasopressin, metaraminol, epinephrine, or combinations thereof). […] The mean patient age was 63 years (SD 14 years), two-thirds of patients were male, and the median APACHE III score was 65 (IQR 49 to 80). There were no significant differences between groups in terms of demographics, clinical characteristics, illness severity, baseline vasopressor type and dose, physiological parameters, or biochemistry.
# Vasodilatory shock was defined by a mean arterial pressure <65 mmHg in the presence of sufficient volume resuscitation and preserved cardiac output, based on either a cardiac index ≥2.3 L/min/m^2, a central venous oxygen saturation ≥70%, or clinician judgement. Patients were excluded if they had kidney failure (i.e., chronic hemodialysis, peritoneal dialysis or a baseline estimated glomerular filtration rate <15 mL/min/1.73 m^2) or were diagnosed with arterial (acute coronary syndrome, ischemic stroke, or mesenteric ischemia) or venous thrombosis (deep vein thrombosis or pulmonary embolism) within the preceding 6 months. […] The mean patient age was 63 (SD 14) years, two-thirds of patients were male, and the median APACHE III score was 65 (IQR 49 to 80). There were no significant differences between the angiotensin II group and the conventional vasopressor group in terms of demographics, clinical characteristics, illness severity, vasopressor type and use, physiological parameters, or biochemistry.
# Intervention: Infusions of angiotensin II were initiated to deliver a dose between 5 and 10 ng/kg/min. The dose was adjusted every 5 minutes according to a protocolized titration scheme to achieve a mean arterial pressure (MAP) of ≥65 mmHg (dose range 1.25 to 40 ng/kg/min). During the adjustment period, infusions of other vasopressor agents were weaned and discontinued where possible. Where the MAP was inadequate despite the maximum dose of angiotensin II, additional vasopressor agents were prescribed at the discretion of the clinician. The use of vasopressin (dose range 0.01 to 0.04 IU/min) was preferred over the use of norepinephrine (dose range 0 to 40 mcg/min). Angiotensin II was continued until resolution of shock, death, or for a maximum of 7 days. If ongoing vasopressor therapy was required after this time, norepinephrine was utilized.
# Control: The control arm included critically ill patients with vasodilatory shock who received conventional vasopressors. To address confounding by indication and other sources of bias arising from the use of non-randomized data, a propensity score was estimated for the likelihood of treatment with angiotensin II to match patients in the intervention arm to their nearest neighbor in the control arm using a 1:2 ratio without replacement. Propensity scores were generated based on age, sex, APACHE II score, serum creatinine level, vasopressor type and dose at enrollment, and time from ICU admission and initiation of any vasopressor to initiation of angiotensin II.
# Secondary Outcomes: Secondary renal outcomes included new or progressive AKI, creatinine trajectory, the requirement for CRRT, time to CRRT liberation, and the development of a major adverse kidney event at day 7 (MAKE7). New AKI was defined and staged according to the Kidney Disease Improving Global Outcomes (KDIGO) criteria as a rise in serum creatinine of ≥26.5 μmol/L in 48 hours or as a ≥50% increase in serum creatinine from baseline within 7 days. Progressive AKI was defined as an increase in AKI severity by at least one KDIGO stage. MAKE7 was a composite of death, dialysis dependence, and a persistent 50% increase in serum creatinine level. […]
structure (smiles),measurement,setting,value
"CC[C@H](C)[C@H](NC(=O)[C@H](Cc1ccc(O)cc1)NC(=O)[C@@H](NC(=O)[C@H](CCCNC(=N)N)NC(=O)[C@@H](N)CC(=O)O)C(C)C)C(=O)N[C@@H](Cc1cnc[nH]1)C(=O)N1CCC[C@H]1C(=O)N[C@@H](Cc1ccccc1)C(=O)O [Angiotensin II, Asp-Arg-Val-Tyr-Ile-His-Pro-Phe]",Deep vein thrombosis - %,in vivo,(5) %
same,Pulmonary embolus - %,in vivo,(10) %
same,Deep vein thrombosis - no.,number of patients,2
same,Pulmonary embolus - no.,number of patients,4
same,Elevated serum troponin - %,,(8) %
same,Elevated serum troponin - %,listed as angiotensin II,8%
